From ChEMBL document CHEMBL4819004, “Discovery of selective CDK9 degraders with enhancing antiproliferative activity through PROTAC conversion” (Eur J Med Chem, 2021)
The source made the active and inactive calls. The rule behind the calls is not given here.

What was measured:
[1] = biological target: CDK9/cyclin T1 (Homo sapiens, UniProt P50750); experiment: Inhibition of CDK9/cyclin T (unknown origin) using YSPTSPSYSPTSPSYSPTSPKKK or histone H1 as substrate incubated for 2 hrs in presence of [gamma-33P]ATP by radioactive filter binding assay; format: protein-complex assay
[2] = biological target: T1, Protein cereblon/Cyclin-dependent kinase 9 (Homo sapiens, UniProt P50750+Q96SW2); experiment: PROTAC activity at CRBN/CDK9 in human MV4-11 cells assessed as reduction in RNA PolII CTD phosphorylation at Ser5 residue measured after 6 hrs by western blot analysis; format: cell-based; settings: dose 31.25-8000 nM
[3] = tested on: HCT-116; experiment: Antiproliferative activity against human HCT-116 cells incubated for 72 hrs by MTT assay; format: functional, cell-based; settings: HCT-116, 72 h
[4] = tested on: MV4-11; experiment: Induction of apoptosis in human MV4-11 cells assessed as late apoptotic cells at 1 nM after 6 hrs by AnnexinV-FITC/propidium iodide staining based flow cytometry (reference value: 4.29%); format: functional
[5] = tested on: MV4-11; experiment: Induction of apoptosis in human MV4-11 cells assessed as late apoptotic cells at 500 nM after 6 hrs by AnnexinV-FITC/propidium iodide staining based flow cytometry (reference value: 4.29%); format: functional
[6] = tested on: MV4-11; experiment: Induction of apoptosis in human MV4-11 cells assessed as late apoptotic cells at 250 nM after 6 hrs by AnnexinV-FITC/propidium iodide staining based flow cytometry (reference value: 4.29%); format: functional
[7] = tested on: MV4-11; experiment: Induction of apoptosis in human MV4-11 cells assessed as viable cells at 250 nM after 6 hrs by AnnexinV-FITC/propidium iodide staining based flow cytometry (reference value: 90.1 %); format: functional; settings: read-out: Activity
[8] = biological target: T1, Protein cereblon/Cyclin-dependent kinase 9; experiment: Protac activity at CRBN/CDK9 in human MV4-11 cells assessed as induction of CDK9 degradation by measuring MCL-1 protein expression level at 250 nM measured after 12 hrs by western blot analysis; format: cell-based
[9] = tested on: MV4-11; experiment: Induction of apoptosis in human MV4-11 cells assessed as total apoptotic cells at 500 nM after 6 hrs by AnnexinV-FITC/propidium iodide staining based flow cytometry (reference value: 9.75 %); format: functional
[10] = tested on: MV4-11; experiment: Induction of apoptosis in human MV4-11 cells assessed as viable cells at 30 nM after 6 hrs by AnnexinV-FITC/propidium iodide staining based flow cytometry (reference value: 90.1 %); format: functional; settings: read-out: Activity
[11] = biological target: T1, Protein cereblon/Cyclin-dependent kinase 9; experiment: Protac activity at CRBN/CDK9 in human MOLM-13 cells assessed as CDK9 degradation rate at 500 nM incubated for 6 hrs by Western blot assay relative to control; format: cell-based
[12] = tested on: MV4-11; experiment: Induction of apoptosis in human MV4-11 cells assessed as late apoptotic cells at 100 nM after 6 hrs by AnnexinV-FITC/propidium iodide staining based flow cytometry (reference value: 4.29%); format: functional
[13] = biological target: T1, Protein cereblon/Cyclin-dependent kinase 9; experiment: Protac activity at CRBN/CDK9 in human MV4-11 cells assessed as CDK9 degradation rate at 500 nM incubated for 6 hrs by Western blot assay relative to control; format: cell-based
[14] = tested on: MV4-11; experiment: Antiproliferative activity against human MV4-11 cells incubated for 72 hrs by MTT assay; format: functional, cell-based; settings: MV4-11, 72 h
[15] = biological target: T1, Protein cereblon/Cyclin-dependent kinase 9; experiment: Reversible PROTAC activity at CRBN/CDK9 in human MV4-11 cells assessed as CDK9 degradation at 250 nM incubated for 6 hrs followed by drug wash-out for 12 hrs by western blot analysis; format: cell-based
[16] = biological target: T1, Protein cereblon/Cyclin-dependent kinase 9; experiment: Protac activity at CRBN/CDK9 in human MV4-11 cells assessed as induction of CDK9 degradation by measuring downregulation of CDK9 expression level at 250 nM by western blot analysis; format: cell-based; settings: time 1-12 hrs, TDE = time-dependent effect
[17] = tested on: MV4-11; experiment: Induction of apoptosis in human MV4-11 cells assessed as necrotic cells at 500 nM after 6 hrs by AnnexinV-FITC/propidium iodide staining based flow cytometry (reference value: 0.16 %); format: functional
[18] = tested on: MV4-11; experiment: Induction of apoptosis in human MV4-11 cells assessed as necrotic cells at 250 nM after 6 hrs by AnnexinV-FITC/propidium iodide staining based flow cytometry (reference value: 0.16 %); format: functional
[19] = tested on: MOLM-13; experiment: Antiproliferative activity against human MOLM-13 cells incubated for 72 hrs by MTT assay; format: functional, cell-based; settings: MOLM-13, 72 h
[20] = tested on: MV4-11; experiment: Induction of apoptosis in human MV4-11 cells assessed as late apoptotic cells at 30 nM after 6 hrs by AnnexinV-FITC/propidium iodide staining based flow cytometry (reference value: 4.29%); format: functional
[21] = biological target: T1, Protein cereblon/Cyclin-dependent kinase 9; experiment: PROTAC activity at CRBN/CDK9 in human MV4-11 cells assessed as reduction in CDK9 protein expression at 100 nM measured after 3 hrs by whole proteome mass spectrometry; format: cell-based
[22] = biological target: T1, Protein cereblon/Cyclin-dependent kinase 9; experiment: Protac activity at CRBN/CDK9 in human MV4-11 cells assessed as induction of CDK9 degradation incubated for 6 hrs by Western blot assay; format: cell-based
[23] = tested on: MV4-11; experiment: Induction of apoptosis in human MV4-11 cells assessed as early apoptotic cells at 100 nM after 6 hrs by AnnexinV-FITC/propidium iodide staining based flow cytometry (reference value: 5.36 %); format: functional
[24] = tested on: A549; experiment: Antiproliferative activity against human A549 cells incubated for 72 hrs by MTT assay; format: functional, cell-based; settings: A549, 72 h
[25] = biological target: Protein cereblon/Cyclin-dependent kinase 1 (Homo sapiens) (UniProt P06493+Q96SW2); experiment: PROTAC activity at CRBN/CDK1 in human MV4-11 cells assessed as induction of CDK1 degradation at 31.25 to 500 nM measured after 3 hrs by western blot analysis; format: cell-based; settings: dose 31.25-500 nM
[26] = tested on: MV4-11; experiment: Induction of apoptosis in human MV4-11 cells assessed as early apoptotic cells at 1 nM after 6 hrs by AnnexinV-FITC/propidium iodide staining based flow cytometry (reference value: 5.36 %); format: functional
[27] = Half life in BALB/c nude mouse xenografted with human MV4-11 cells at 5 mg/kg, iv by LC/MS/MS analysis; format: ADME, organism-based; settings: in vivo
[28] = biological target: Protein cereblon/Cyclin-dependent kinase 7 (Homo sapiens) (UniProt P50613+Q96SW2); experiment: PROTAC activity at CRBN/CDK7 in human MV4-11 cells assessed as induction of CDK7 degradation at 31.25 to 500 nM measured after 3 hrs by western blot analysis; format: cell-based; settings: dose 31.25-500 nM
[29] = tested on: MV4-11; experiment: Induction of apoptosis in human MV4-11 cells assessed as total apoptotic cells at 1 nM after 6 hrs by AnnexinV-FITC/propidium iodide staining based flow cytometry (reference value: 9.75 %); format: functional
[30] = tested on: MV4-11; experiment: Induction of apoptosis in human MV4-11 cells assessed as viable cells at 1 nM after 6 hrs by AnnexinV-FITC/propidium iodide staining based flow cytometry (reference value: 90.1 %); format: functional; settings: read-out: Activity
[31] = tested on: MV4-11; experiment: Induction of apoptosis in human MV4-11 cells assessed as necrotic cells at 1000 nM after 6 hrs by AnnexinV-FITC/propidium iodide staining based flow cytometry (reference value: 0.16 %); format: functional
[32] = tested on: MV4-11; experiment: Induction of apoptosis in human MV4-11 cells assessed as necrotic cells at 1 nM after 6 hrs by AnnexinV-FITC/propidium iodide staining based flow cytometry (reference value: 0.16 %); format: functional
[33] = tested on: MV4-11; experiment: Induction of apoptosis in human MV4-11 cells assessed as early apoptotic cells at 500 nM after 6 hrs by AnnexinV-FITC/propidium iodide staining based flow cytometry (reference value: 5.36 %); format: functional

IC50 [1]: 8.68 nM
Activity [2]: Dose-Dependent Effect
IC50 [3]: 3080 nM
Activity [8]: 0%
Activity [11]: 100%
Activity [13]: 100%
IC50 [14]: 25 nM
Activity [15]: Active
Activity [16]: Tde
IC50 [19]: 120 nM
Activity [21]: Active
DC50 [22]: 7.62 nM
IC50 [24]: 1220 nM
Activity [25]: inactive
half-life [27]: 1.3 h
Activity [28]: inactive
Structure (SMILES): COc1cc(F)ccc1-c1ncnc(Nc2cccc(CS(C)(=O)=NC(=O)CCCCCCCC(=O)NCCNc3cccc4c3C(=O)N(C3CCC(=O)NC3=O)C4=O)c2)n1 (stereo not drawn)
Activity [4]: 14%
Activity [5]: 13.7%
Activity [6]: 14.3%
viability at 0.25 µM [7]: 40.1%
Activity [9]: 67.9%
viability at 0.03 µM [10]: 77.6%
Activity [12]: 15.3%
Activity [17]: 0.72%
Activity [18]: 0.47%
Activity [20]: 14.8%
Activity [23]: 11.5%
Activity [26]: 6.13%
Activity [29]: 22.1%
viability at 0.001 µM [30]: 79.1%
Activity [31]: 0.4%
Activity [32]: 0.77%
Activity [33]: 54.2%
